Source: patent publication US20260294922A1, “Inhibitors of JUN N-Terminal Kinases (JNK1, JNK2, and/or JNK3) and Mitogen-Activated Protein Kinases (MAPK8, MAPK9, and/or MAPK10) and Methods of Using Same” (Baylor College of Medicine, priority 2023, published 2026)
Values after ≈ are worked out from the molar mass of the structure shown. Like-named read-outs stand apart in the source and are kept apart here.

Legend:
JNK1 [1] = molecular target: T1, JNK1 (Homo sapiens, UniProt P45983); assay: JNK1 kinase (intrinsic ATPase, Kinase-Glo) assay; format: biochemical
T1 sequence (P45983 whole entry): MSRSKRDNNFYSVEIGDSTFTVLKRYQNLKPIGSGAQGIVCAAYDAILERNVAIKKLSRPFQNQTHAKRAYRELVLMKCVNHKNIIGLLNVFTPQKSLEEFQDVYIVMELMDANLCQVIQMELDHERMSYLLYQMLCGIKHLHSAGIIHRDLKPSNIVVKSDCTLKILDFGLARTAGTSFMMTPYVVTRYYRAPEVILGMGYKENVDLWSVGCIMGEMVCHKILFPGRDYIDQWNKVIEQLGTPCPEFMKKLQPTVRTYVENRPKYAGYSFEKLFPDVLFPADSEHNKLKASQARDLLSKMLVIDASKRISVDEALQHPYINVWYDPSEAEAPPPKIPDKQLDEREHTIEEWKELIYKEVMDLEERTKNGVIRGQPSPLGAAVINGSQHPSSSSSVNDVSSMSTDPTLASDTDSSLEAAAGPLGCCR
Procedure: JNK1, JNK2, and JNK3 hydrolyze ATP to ADP without any peptide substrates. This allows a very robust and fast endpoint assay where the remaining concentration of ATP is measured (BMG ClarioStar Plus plate reader) using the Kinase-Glo Assay kit from Promega (V6711). A luminescence signal is measured, which is produced by the catalytic conversion of beetle luciferin to oxyluciferin by luciferase. Potential inhibition of luciferase (i.e., false negatives) is easily detected, because assays without kinase are always included, and less ATP than is present in this control reaction could also indicate an inhibition of luciferase, which can be excluded by a counter screen with only luciferase.
To mitigate violation of the linear initial velocity principle, which is a problem in end-point assays when doing dose-responses, the enzyme concentration was carefully optimized, in a total assay volume of 25 μL. […] The kinase reaction was done for 30 or 60 min at 30° C., and detection of leftover ATP was measured according to Promega's protocol. […] Fractional activities were obtained from normalized data. Non-linear regression (GraphPad Prism7) and a modified Morrison equation for tight binding was used to determine apparent Ki values for inhibitors, assuming no particular mode of inhibition. An orthogonal binding assay (LanthaScreen) was outsourced to ThermoFisher Scientific's SelectScreen Services to determine IC50 values.

JNK2 [2] = molecular target: T2, JNK2 (Homo sapiens, UniProt P45984); assay: JNK2 kinase (intrinsic ATPase, Kinase-Glo) assay; format: biochemical
T2 sequence (P45984 whole entry): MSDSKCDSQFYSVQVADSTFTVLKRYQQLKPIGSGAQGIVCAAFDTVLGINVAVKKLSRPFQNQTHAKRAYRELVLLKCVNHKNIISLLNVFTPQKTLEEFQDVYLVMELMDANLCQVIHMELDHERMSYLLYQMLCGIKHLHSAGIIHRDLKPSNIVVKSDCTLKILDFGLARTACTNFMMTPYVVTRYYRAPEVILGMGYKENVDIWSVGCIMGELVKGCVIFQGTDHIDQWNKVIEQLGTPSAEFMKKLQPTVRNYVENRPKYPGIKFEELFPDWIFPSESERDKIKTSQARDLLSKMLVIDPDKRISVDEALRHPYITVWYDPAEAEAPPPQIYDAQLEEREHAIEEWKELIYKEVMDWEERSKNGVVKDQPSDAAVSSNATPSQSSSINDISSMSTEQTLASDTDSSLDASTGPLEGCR

JNK3 [3] = molecular target: T3, JNK3 (Homo sapiens, UniProt P53779); assay: JNK3 kinase (intrinsic ATPase, Kinase-Glo) assay; format: biochemical
T3 sequence (P53779 whole entry): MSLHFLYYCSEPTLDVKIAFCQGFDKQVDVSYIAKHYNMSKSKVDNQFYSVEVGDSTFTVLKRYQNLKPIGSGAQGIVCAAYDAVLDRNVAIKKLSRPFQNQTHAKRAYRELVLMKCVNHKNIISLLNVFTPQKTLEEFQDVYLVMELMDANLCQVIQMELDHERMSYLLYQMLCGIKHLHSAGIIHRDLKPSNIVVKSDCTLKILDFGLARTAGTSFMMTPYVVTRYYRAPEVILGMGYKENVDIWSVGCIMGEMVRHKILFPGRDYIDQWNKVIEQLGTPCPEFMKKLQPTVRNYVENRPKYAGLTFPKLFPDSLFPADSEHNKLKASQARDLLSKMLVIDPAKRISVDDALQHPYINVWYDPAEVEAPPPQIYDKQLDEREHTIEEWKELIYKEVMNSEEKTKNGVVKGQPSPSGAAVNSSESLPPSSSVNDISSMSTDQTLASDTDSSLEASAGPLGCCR

JNK1 [4] = molecular target: T1, JNK1; assay: Promega NanoBRET intracellular target engagement (tracer K10 displacement), JNK1; format: cell-based
JNK2 [5] = molecular target: T2, JNK2; assay: Promega NanoBRET intracellular target engagement (tracer K10 displacement), JNK2; format: cell-based
JNK3 [6] = molecular target: T3, JNK3; assay: Promega NanoBRET intracellular target engagement (tracer K10 displacement), JNK3; format: cell-based
[7] = In vitro metabolism in mouse liver microsomes; details: for half-life: mouse, microsomes
Procedure: (§1) The target product profile seeks to deliver JNK inhibitor as a once daily oral administration. To prioritize compounds for further development, in vitro metabolism of several CDD JNK inhibitors were determined to approximate the plasma half-life and the rate of metabolism of the compounds in vivo.

[8] = In vitro metabolism in human liver microsomes; details: human, microsomes
Procedure: as §1

Structure (SMILES)	Kd (JNK1 [1])	Kd (JNK2 [2]; Table 3a, read-out: Kd JNK2)	Kd (JNK3 [3]; Table 3a, read-out: Kd JNK3)	IC50 (JNK1 [4])	IC50 (JNK2 [5])	IC50 (JNK3 [6])	half-life [7]	half-life [8]	solubility (Solubility)	Kd (JNK2 [2])	Kd (JNK3 [3])	metabolism in liver microsomes ([7]; liver microsomes, in words)
CNC(=O)c1ccn2ncc(-c3cnc4[nH]ccc4c3)c2c1 [CDD-2574, N-methyl-3-(1H-pyrrolo[2,3-b]pyridin-5-yl)pyrazolo[1,5-a]pyridine-5-carboxamide]	1.69 ± 0.39 nM	12.5 ± 0.68 nM	6.56 ± 0.85 nM	7300 nM	5400 nM	5900 nM	0.125 h	0.608 h	11.1 µM (≈ 3.23 µg/mL)	–	–	–
O=C(Nc1cncnc1)c1cc2c(-c3cnc4[nH]ccc4c3)cccc2s1 [CDD-3015, N-(pyrimidin-5-yl)-4-(1H-pyrrolo[2,3-b]pyridin-5-yl)benzo[b]thiophene-2-carboxamide]	2.34 ± 0.3 nM	6.84 ± 0.81 nM	3.18 ± 0.14 nM	3500 nM	3200 nM	8200 nM	0.773 h	3.57 h	0.3 µM (≈ 0.111 µg/mL)	–	–	–
CN(C)C(=O)c1cc(NC(=O)c2cc3c(-c4cnc5[nH]ncc5c4)cccc3s2)ccc1O [CDD-3018, N-(3-(dimethylcarbamoyl)-4-hydroxyphenyl)-4-(1H-pyrazolo[3,4-b]pyridin-5-yl)benzo[b]thiophene-2-carboxamide]	3.58 ± 0.47 nM	11.4 ± 1 nM	5.17 ± 0.33 nM	–	10900 nM	31700 nM	0.98 h	8.85 h	1.5 µM (≈ 0.686 µg/mL)	–	–	–
CNC(=O)c1cc(NC(=O)c2cc3c(-c4cnc5[nH]ccc5c4)cccc3s2)ccc1OC [CDD-2490, N-(4-methoxy-3-(methylcarbamoyl)phenyl)-4-(1H-pyrrolo[2,3-b]pyridin-5-yl)benzo[b]thiophene-2-carboxamide]	1.52 ± 0.3 nM	–	–	6300 nM	2000 nM	29300 nM	–	–	0.4 µM (≈ 0.183 µg/mL)	5.37 ± 0.42 nM	3.53 nM	–
O=C(Nc1ccc(O)c(C(=O)N2CCC2)c1)c1cc2c(-c3cnc4[nH]ccc4c3)cccc2s1 [CDD-3014, N-(3-(azetidine-1-carbonyl)-4-hydroxyphenyl)-4-(1H-pyrrolo[2,3-b]pyridin-5-yl)benzo[b]thiophene-2-carboxamide]	0.58 ± 0.08 nM	5.74 ± 0.5 nM	2.92 ± 0.21 nM	789 nM	738 nM	960 nM	1.02 h	2.93 h	0.4 µM (≈ 0.187 µg/mL)	–	–	–
NC(=O)c1cccc(NC(=O)c2cc3c(-c4cnc5[nH]ccc5c4)cccc3s2)c1 [CDD-2936, N-(3-carbamoylphenyl)-4-(1H-pyrrolo[2,3-b]pyridin-5-yl)benzo[b]thiophene-2-carboxamide]	1.62 ± 0.31 nM	–	–	702 nM	780 nM	1140 nM	1.15 h	4.55 h	–	9.09 ± 0.53 nM	3.2 nM	–
CNC(=O)c1cc2c(-c3cnc4[nH]ccc4c3)cccc2s1 [CDD-2627, N-methyl-4-(1H-pyrrolo[2,3-b]pyridin-5-yl)benzo[b]thiophene-2-carboxamide]	3.74 ± 0.93 nM	14.8 ± 0.95 nM	9 ± 2.4 nM	14800 nM	6100 nM	23000 nM	–	–	40.3 µM (≈ 12.4 µg/mL)	–	–	–
Cc1ccc(NC(=O)c2cc3c(-c4cnc5[nH]ccc5c4)cccc3s2)cc1C(=O)N(C)C [CDD-2729, N-(3-(dimethylcarbamoyl)-4-methylphenyl)-4-(1H-pyrrolo[2,3-b]pyridin-5-yl)benzo[b]thiophene-2-carboxamide]	1.2 ± 0.16 nM	6.5 ± 0.63 nM	1.93 ± 0.14 nM	1000 nM	1000 nM	781 nM	0.335 h	0.918 h	–	–	–	–
CNCc1ccc(NC(=O)c2ccc3ncc(-c4cnc5[nH]ccc5c4)n3c2)cc1 [CDD-2488, N-(4-((methylamino)methyl)phenyl)-3-(1H-pyrrolo[2,3-b]pyridin-5-yl)imidazo[1,2-a]pyridine-6-carboxamide]	3.1 ± 0.8 nM	3.08 ± 0.16 nM	4.34 ± 0.6 nM	66000 nM	13500 nM	34800 nM	2.1 h	1.99 h	124 µM (≈ 49.2 µg/mL)	–	–	–
CN(C)C(=O)c1cc(NC(=O)c2cc3c(-c4cnc5[nH]ccc5c4)cccc3o2)ccc1O [CDD-2855, N-(3-(dimethylcarbamoyl)-4-hydroxyphenyl)-4-(1H-pyrrolo[2,3-b]pyridin-5-yl)benzofuran-2-carboxamide]	1.52 ± 0.15 nM	12.2 ± 1.3 nM	2.68 ± 0.2 nM	4910 nM	4200 nM	5300 nM	1.92 h	3.43 h	–	–	–	–

Further molecules by falling Kd (JNK1 [1]), results first:

Kd (JNK1 [1])	Kd (JNK2 [2]; Table 3a, read-out: Kd JNK2)	Kd (JNK3 [3]; Table 3a, read-out: Kd JNK3)	IC50 (JNK1 [4])	IC50 (JNK2 [5])	IC50 (JNK3 [6])	half-life [7]	half-life [8]	solubility (Solubility)	Kd (JNK2 [2])	Kd (JNK3 [3])	metabolism in liver microsomes ([7]; liver microsomes, in words)	Structure (SMILES)
0.57 ± 0.1 nM	1.93 ± 0.14 nM	0.54 ± 0.09 nM	1200 nM	820 nM	1200 nM	0.272 h	0.267 h	4.9 µM (≈ 2.58 µg/mL)	–	–	–	COc1ccc(NC(=O)c2cc3c(-c4cnc5[nH]ccc5c4)cccc3s2)cc1C(=O)N1CCN(C)CC1 [CDD-2636, N-(4-methoxy-3-(4-methylpiperazine-1-carbonyl)phenyl)-4-(1H-pyrrolo[2,3-b]pyridin-5-yl)benzo[b]thiophene-2-carboxamide]
0.52 ± 0.12 nM	4.84 ± 0.49 nM	2.08 ± 0.18 nM	3800 nM	3600 nM	6000 nM	1.11 h	9.13 h	2 µM (≈ 0.883 µg/mL)	–	–	–	CN(C)C(=O)c1cc(NC(=O)c2cc3c(-c4cnc5[nH]ccc5c4)cccc3s2)ccn1 [CDD-3012, 4-(4-(1H-pyrrolo[2,3-b]pyridin-5-yl)benzo[b]thiophene-2-carboxamido)-N,N-dimethylpicolinamide]
0.39 ± 0.12 nM	2.23 ± 0.12 nM	2.7 ± 0.29 nM	254 nM	228 nM	235 nM	2.18 h	5.97 h	–	–	–	–	Cc1c[nH]c2ncc(-c3cccc4sc(C(=O)Nc5ccc(O)c(C(=O)N(C)C)c5)cc34)cc12 [CDD-3017, N-(3-(dimethylcarbamoyl)-4-hydroxyphenyl)-4-(3-methyl-1H-pyrrolo[2,3-b]pyridin-5-yl)benzo[b]thiophene-2-carboxamide]
0.36 ± 0.11 nM	1.63 ± 0.14 nM	1.41 ± 0.07 nM	830 nM	900 nM	1500 nM	–	–	1 µM (≈ 0.367 µg/mL)	–	–	–	Cc1ccc(NC(=O)c2ccn3ncc(-c4cnc5[nH]ccc5c4)c3c2)cc1 [CDD-2288, 3-(1H-pyrrolo[2,3-b]pyridin-5-yl)-N-(p-tolyl)pyrazolo[1,5-a]pyridine-5-carboxamide]
0.28 ± 0.05 nM	4.53 ± 0.55 nM	1.67 ± 0.06 nM	1600 nM	1460 nM	1130 nM	0.967 h	3.22 h	–	–	–	–	CN(C)C(=O)c1cc(O)cc(NC(=O)c2cc3c(-c4cnc5[nH]ccc5c4)cccc3s2)c1 [CDD-2937, N-(3-(dimethylcarbamoyl)-5-hydroxyphenyl)-4-(1H-pyrrolo[2,3-b]pyridin-5-yl)benzo[b]thiophene-2-carboxamide]
0.28 ± 0.12 nM	1.27 ± 0.14 nM	1.18 ± 0.09 nM	1400 nM	890 nM	1200 nM	0.517 h	0.128 h	2.3 µM (≈ 0.87 µg/mL)	–	–	–	Cc1ccc(NC(=O)c2ccn3ncc(-c4cncc5ccccc45)c3c2)cc1 [CDD-2325, 3-(isoquinolin-4-yl)-N-(p-tolyl)pyrazolo[1,5-a]pyridine-5-carboxamide]
0.17 ± 0.05 nM	1.28 ± 0.15 nM	0.81 ± 0.05 nM	156 nM	156 nM	124 nM	0.53 h	1.92 h	3.2 µM (≈ 1.55 µg/mL)	–	–	rapidly metabolized	COc1ccc(NC(=O)c2cc3c(-c4cnc5[nH]cc(C)c5c4)cccc3s2)cc1C(=O)N(C)C [CDD-2731, N-(3-(dimethylcarbamoyl)-4-methoxyphenyl)-4-(3-methyl-1H-pyrrolo[2,3-b]pyridin-5-yl)benzo[b]thiophene-2-carboxamide]
0.16 ± 0.05 nM	1.54 ± 0.13 nM	0.76 ± 0.22 nM	186 nM	325 nM	160 nM	0.477 h	1.24 h	2.6 µM (≈ 1.33 µg/mL)	–	–	–	COc1ccc(NC(=O)c2cc3c(-c4cnc5[nH]ccc5c4)cccc3s2)cc1C(=O)N1CCOCC1 [CDD-2635, N-(4-methoxy-3-(morpholine-4-carbonyl)phenyl)-4-(1H-pyrrolo[2,3-b]pyridin-5-yl)benzo[b]thiophene-2-carboxamide]
